≈ marks a conversion by molar mass, not a printed value. Peptide text beside a SMILES is read from it.
Assays:
S. aureus ATCC 43300 = type: cell-based, Staphylococcus aureus; conditions: microtiter, serial 2-fold dilutions, 37°C, 16∼20 h, triplicate; – = no activity
How it was run: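 MIC values come from triplicate microtiter plate tests in which serial 2-fold peptide dilutions were incubated with bacteria at 37°C for 16∼20 h; no visible growth defined the endpoint.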

[1] = test system: S. epidermidis ATCC 12228; test: MIC, microtiter plate assay; type: cell-based, Staphylococcus epidermidis; conditions: 37°C, 16∼20 h, triplicate
Protocol: (§1) The minimal inhibitory concentration (MIC) was evaluated by a microtiter plate assay ([Wiegand et al., 2008]). Serial 2-fold dilutions of test peptides were placed into a 96-well plate containing identical bacterial inoculum and incubated at 37°C for 16∼20 h. Vancomycin was used as antibiotic control. The MIC value was defined as the lowest peptide concentration where no visible growth occurred. All tests were made in triplicate.

S. suis CVCC 3928 = test: MIC, microtiter plate assay; type: cell-based, Streptococcus suis; conditions: 37°C, 16∼20 h, triplicate
Protocol: as §1

[2] = test system: Escherichia coli ATCC 25922; test: MIC, microtiter plate assay; type: cell-based; conditions: 37°C, 16∼20 h, triplicate
Protocol: as §1

[3] = test system: Salmonella pullorum CVCC 533; test: MIC, microtiter plate assay; type: cell-based; conditions: 37°C, 16∼20 h, triplicate
Protocol: as §1

[4] = test system: Streptococcus pneumoniae CVCC 2350; test: MIC, microtiter plate assay; type: cell-based; conditions: 37°C, 16∼20 h, triplicate
Protocol: as §1

E. coli K88 = test: MIC, microtiter plate assay; type: cell-based, Escherichia coli; conditions: 37°C, 16∼20 h, triplicate
Protocol: as §1

S. enteritidis CVCC 3377 = test: MIC, microtiter plate assay; type: cell-based, Salmonella enteritidis; conditions: 37°C, 16∼20 h, triplicate
Protocol: as §1

mouse erythrocytes = test: Hemolytic activity; type: cell-based; conditions: 128 μg/mL, 8% (v/v) mouse erythrocytes in PBS, 1 h, 37°C, absorbance 576 nm, n = 3
Protocol: Hemolytic activity of peptides was evaluated with fresh mouse erythrocytes. Briefly, fresh mouse erythrocytes were collected, washed, and resuspended to a concentration of 8% (v/v) in PBS. Then, an aliquot of erythrocyte solution was added to 96-well plates containing an equal volume of peptide solution (1∼256 μg/mL) and was incubated for 1 h at 37°C. The erythrocyte suspension treated with 0.1% Triton X-100 and left untreated was employed as positive and negative controls, respectively. After centrifugation at 2000 rpm for 5 min, the supernatant was measured using a microplate reader at 576 nm. The percent hemolysis was calculated using the following formula: Percenthemolysis = [(A − A0)/(A100 − A0)] × 100%, where A, A100, and A0 represent the absorbance of the peptide sample and positive and negative controls, respectively.

[5] = test system: mouse macrophage RAW 264.7; test: Cytotoxicity, MTT assay; type: cell-based; conditions: 256 μg/mL, RAW 264.7, MTT, n = 4
Protocol: The cytotoxicity of peptides toward mouse macrophage RAW 264.7 was evaluated by the MTT assay as described previously ([Wang X. et al., 2018]).

S. aureus CVCC 546 [6] = test: Membrane permeabilization, PI flow cytometry; type: cell-based, Staphylococcus aureus; conditions: 0.5 h, 10^8 CFU/mL, n = 3
Protocol: The effects of peptides on membrane permeabilization were measured by flow cytometry ([Zhu et al., 2018]). […] Cells untreated and treated with 2 × MIC DLP4 or vancomycin were used as blank and positive controls. The fluorescence of the dye was monitored at an excitation wavelength of 488 nm and an emission wavelength of 635 nm.

S. aureus CVCC 546 [7] = test: Potassium ion (K+) leakage; type: cell-based, Staphylococcus aureus; conditions: 1 × MIC, treated for 150 min, 0.9% saline, 10^8 CFU/mL, ICP, n = 3
Protocol: To further investigate the effects of peptides on membrane integrity, K^+ leakage determination was carried out as previously described ([Miao et al., 2016]). Briefly, S. aureus CVCC 546 cells were centrifuged, washed, and resuspended in 0.9% sterile saline. The cell suspension (10^8 CFU/mL) was treated with peptides at 1 × MIC. Cells untreated and treated with DLP4 or nisin were used as blank and positive controls. At time intervals of 30, 60, 90, 120, and 150 min, the suspensions were centrifuged at 12000 rpm for 5 min. The supernatants were then subjected to measurement by Agilent inductively coupled plasma optical emission (ICP-OES).

S. aureus CVCC 546 [8] = test: Time-kill assay; type: cell-based, Staphylococcus aureus; conditions: MHB, 10^5 CFU/mL, 37°C, n = 3
From the text: Time-kill assay was used to assess the killing rates of S. aureus cells by AMPs in vitro, done by measuring the number of viable bacteria left at various times after exposure to the peptides. […] At different time intervals, a certain sample was taken, serially diluted, and plated on MHA for colonies counting. Cells treated with 2 × MIC DLP4 or vancomycin and left without treatment were used as the positive and blank controls, respectively ([Flamm et al., 2019]).

S. aureus CVCC 546 [9] = test: Mouse thigh infection model, CFU in thigh muscle; type: in vivo, mouse (female CD-1); conditions: 10 mg/kg single i.p. dose 2 h post-infection, read 24 h post-infection, n = 6
Protocol: (§2) Mouse experiments were carried out at Gene Engineering Laboratory, Feed Research Institute of Chinese Academy of Agricultural Sciences (CAAS) and complied with institutional animal care and use policies and procedures (AEC-CAAS-20090609). All animal studies were performed with female CD-1 mice, 6∼7 weeks old.
(§3) S. aureus CVCC 546 in the exponential phase were resuspended in MHB and adjusted to 1 × 10^8 CFU/mL, a 0.1-mL inoculum was injected into the right thighs of mice. At 2 h post-infection, mice (n = 6) were administered intraperitoneally (i.p.) with peptides at 2.5, 5, or 10 mg/kg. Mice raised without any treatment, or treated with PBS, 10 mg/kg DLP4, or vancomycin were used as the blank and negative and positive controls, respectively. At 24 h post-infection, peripheral blood was collected and serum was separated for cytokine levels analysis by using enzyme-linked immunosorbent assay (ELISA) kit (R&D systems, United States). Mice were euthanized, the right thighs were aseptically removed and processed for colonies counting ([Ling et al., 2015]).

IL-10 = test: Mouse thigh infection model, serum cytokine ELISA; type: in vivo, mouse (female CD-1); conditions: 10 mg/kg i.p., serum 24 h post-infection
Protocol: as §2, §3

IL-6 = test: Mouse thigh infection model, serum cytokine ELISA; type: in vivo, mouse (female CD-1); conditions: 10 mg/kg i.p., serum 24 h post-infection
Protocol: as §2, §3

TNF-α = test: Mouse thigh infection model, serum cytokine ELISA; type: in vivo, mouse (female CD-1); conditions: 10 mg/kg i.p., serum 24 h post-infection
Protocol: as §2, §3

Gram-negative bacteria = test: MIC, summary over Gram-negative strains; type: cell-based; conditions: E. coli and Salmonella strains of Table 2
Protocol: as §1

SMILES: CC[C@H](C)[C@@H]1NC(=O)[C@@H]2CSSC[C@@H](C(=O)N[C@@H](CCCNC(=N)N)C(=O)N[C@@H](CCCCN)C(=O)O)NC(=O)[C@H](CC(N)=O)NC(=O)[C@@H]3CSSC[C@H](NC(=O)[C@H](C)NC(=O)[C@H](C)NC(=O)[C@H](Cc4c[nH]cn4)NC(=O)CNC(=O)[C@H](C(C)C)NC(=O)[C@H](CCCCN)NC(=O)[C@H](Cc4ccccc4)NC(=O)[C@@H]4CCCN4C(=O)[C@H](CO)NC(=O)[C@H](CC(C)C)NC(=O)[C@H](CC(C)C)NC(=O)[C@H](CC(=O)O)NC(=O)[C@@H](NC(=O)[C@@H](NC(=O)[C@H](C)N)[C@@H](C)O)CSSC[C@H](NC(=O)[C@H](Cc4c[nH]c5ccccc45)NC(=O)CNC(=O)CNC(=O)[C@H](CCCNC(=N)N)NC(=O)[C@H](CCCCN)NC(=O)CNC(=O)[C@H](CCCNC(=N)N)NC(=O)[C@H](C)NC1=O)C(=O)N[C@@H](CC(=O)O)C(=O)NCC(=O)N[C@@H](CCCNC(=N)N)C(=O)N[C@@H](C)C(=O)N[C@@H](C(C)C)C(=O)N3)C(=O)N[C@@H](C)C(=O)N[C@@H](C)C(=O)N[C@@H](Cc1c[nH]cn1)C(=O)N2 [ID13] (HELM PEPTIDE1{A.T.C.D.L.L.S.P.F.K.V.G.H.A.A.C.A.A.H.C.I.A.R.G.K.R.G.G.W.C.D.G.R.A.V.C.N.C.R.K}$PEPTIDE1,PEPTIDE1,3:R3-30:R3|PEPTIDE1,PEPTIDE1,16:R3-36:R3|PEPTIDE1,PEPTIDE1,20:R3-38:R3$$$V2.0; N-terminus and C-terminus assumed)
- A1 (MIC against S. aureus ATCC 43300) (S. aureus ATCC 43300): 4 µg/mL
- MIC [1]: 1.91 µM (≈ 8.02 µg/mL)
- MIC (S. suis CVCC 3928): 0.95 µM (≈ 3.99 µg/mL)
- MIC [2]: >30.50 µM
- MIC [3]: >30.50 µM
- MIC [4]: 0.95 µM (≈ 3.99 µg/mL)
- MIC (E. coli K88): >30.50 µM
- MIC (S. enteritidis CVCC 3377): >30.50 µM
- hemolysis (mouse erythrocytes): 0.38%
- cell viability [5]: 71.4%
- percentage of PI-positive cells (S. aureus CVCC 546 [6]; 1 × MIC): 47.2%
- percentage of PI-positive cells (S. aureus CVCC 546 [6]; 2 × MIC): 48.2%
- percentage of PI-positive cells (S. aureus CVCC 546 [6]; 4 × MIC): 52.8%
- level of released K+ (S. aureus CVCC 546 [7]): 0.81 mg/L
- decrease of CFU counts within 1 h (S. aureus CVCC 546 [8]; 1 × MIC): 2.16 log10 CFU/mL
- decrease of CFU counts within 1 h (S. aureus CVCC 546 [8]; 2 × MIC): 3.14 log10 CFU/mL
- decrease of CFU counts within 1 h (S. aureus CVCC 546 [8]; 4 × MIC): 3.4 log10 CFU/mL
- reduction of S. aureus in infected thigh muscles (S. aureus CVCC 546 [9]): 1.8 log10 (CFU/g)
- downregulation of serum level of IL-10 (IL-10): 37.66 pg/mL
- downregulation of serum level of IL-6 (IL-6): 750.02 pg/mL
- downregulation of serum level of TNF-α (TNF-α): 1123.30 pg/mL
- activity against Gram-negative bacteria (Gram-negative bacteria): no activity

— paper PMC7291858, “An Enhanced Variant Designed From DLP4 Cationic Peptide Against Staphylococcus aureus CVCC 546” (Frontiers in Microbiology, 2020)
